Where two headings read alike, the source gives them in different places.
Key:
[1] = system: Leishmania tarentolae promastigotes (LtP); assay: Resazurin viability assay for LtP; assay type: cell-based; details: for IC50: Leishmania tarentolae, read-out: LtP IC50; for Selectivity IC50,J774/IC50,LtP: ratio of IC50 in J774 macrophages to IC50 in LtP; for IC50,non-EP/IC50,EP: ratio of IC50 of non-EP in LtP versus IC50 of respective EP
Procedure: (§1) The influence of AcEP and their analogs (Ac) on the viability of cells was tested in Leishmania tarentolae promastigotes (LtP) and J774 macrophages (Table 2). Based on the changes of viability of the respective cell lines at different compound concentrations, IC50 values were calculated. In Table 2, the IC50 values in both cell lines were compared for the individual compounds. From the ratio of IC50 values in J774 macrophages to IC50 values in LtP, an in vitro selectivity was calculated.
LtP (strain P10 from Jena Bioscience, Jena, Germany) were cultivated according to manufacturer instructions up to passage 50 in brain heart infusion medium (37 g/L, pH 7.4) and supplemented with 5 mg/L hemin and 25,000 IU/L penicillin and 25 mg/L streptomycin in 50 mL TubeSpin bioreactors (TPP, Trasadingen. Switzerland). LtP were grown at 27 °C in an incubator (Ehret, Emmendingen, Germany) and agitated at a frequency of 0.05 s^−1. […] For experiments, LtP were used one day after passage. The cell number was calculated by measuring the optical density (OD) of the culture at 600 nm with a U-1100 photometer (Hitachi Ltd., Tokyo, Japan) and applying the formula × 10^6 cells/mL = OD600nm × 0.969 × 124 × dilution factor [53].
Assay medium of YEM (20.7 g/L yeast extract powder, 1.2 g/L K2HPO4, 0.2 g/L KH2PO4, 2.9 g/L glucose, pH 7.4) and PBS (1:1, v/v), 25,000 U/L penicillin, 25 mg/L streptomycin, and 7.7 µM hemin was prepared. Aliquots of 200 µL of this medium and 2 × 10^6 LtP/mL (where required) were distributed in non-treated cell culture 96-well plates. Compounds (dissolved in DMSO) were added with starting concentrations of 25 µM (Pen) or 200 µM (AcEP/Ac), and then, serial dilutions were carried out resulting in a set of concentrations (25, 5, 1, 0.2, 0.04, and 0.008 µM) or (200, 40, 8, 1.6, 0.32, and 0.064 µM). For each compound concentration, at least triplicates on each plate were performed. After incubation of the plates at 27 °C for 48 h, 50 µL of resazurin solution (final concentration in wells 20 µM) was added to each well and after 4 h of incubation, the fluorescence was measured at 560 nm excitation and 590 nm emission using a plate reader (Perkin Elmer EnSpire, Rodgau, Germany) (adapted from). Combination assays for viability in the presence of PIH and NAC were performed the same way. […] All tests were repeated at least on four different weeks of cultivation.
(§2) Calculations were carried out using Microsoft Excel 2016 (Microsoft). The graphs were created using Origin 6.1 (OriginLab Corporation, Northampton, MA, USA). For all groups of experimental data, mean and standard deviation (SD) were calculated. Statistically significant differences between groups of sample data were identified by unpaired two-tailed Student’s t-test. Differences on the level of p < 0.05 were considered significant. The number of replicates is indicated at the respective figures/tables. The half-maximal inhibitory concentrations (IC50) were determined from non-linear concentration-response curves using a four-parameter logistic model and expressed as the mean ± SD.

[2] = system: J774 macrophages; assay: Resazurin viability assay for J774 macrophages; assay type: cell-based, murine; details: Mus musculus, J774, 48 h, read-out: J774 IC50
Procedure: as §1
The murine macrophage cell line J774A.1 (ATCC, TIB-67™, Wesel, Germany) was cultivated up to passage 30 in DMEM (high glucose, 3.7 g/L NaHCO3, pH 7.4) with 25,000 IU/L penicillin, 25 mg/L streptomycin, and 10% FCS (heat-inactivated) in 50 mL TubeSpin bioreactors. J774 cells were incubated at 37 °C and 5% CO2 on a roller culture apparatus (5 rpm) in a Heraeus Cytoperm 8080 incubator (Thermo Electron Corp., Vienna, Austria). To determine the cell count, the cell suspension was re-suspended and diluted 1:2 with phosphate-buffered saline (PBS): 137 mM NaCl, 1.4 mM KH2PO4, 4.3 mM Na2HPO4, and 2.7 mM KCl, pH 7.4. After fixation of the cells by mixing the cell suspension 1:1 with a formaldehyde solution (2%, v/v), aliquots of the resulting suspension were transferred into a standard Neubauer chamber (VWR, Austria) and counted manually using a light microscope (Motic BA310, Vienna, Austria) at a magnification of 40 times. J774 cells were passaged twice a week in a ratio of 1:10.
DMEM containing 25,000 U/L penicillin, 25 mg/L streptomycin, 10% FCS, and 1 × 10^5 J774/mL was prepared. This mixture (200 µL) was distributed in cell culture-treated 96-well plates, except the control wells which contained only DMEM. The cells were incubated for 24 h at 37 °C and 5% CO2 to allow attachment. Afterwards the medium and non-adherent cells were removed by washing with PBS, and then, 200 µL DMEM was added to attached cells. Compounds dissolved in DMSO were added in starting concentrations of 25 µM (Pen) or 200 µM (AcEP/Ac), and then, serial dilutions were carried out resulting in the same concentration steps as listed for LtP. For each compound concentration triplicates on each plate were performed. […], 50 µL of resazurin solution (final concentration 20 µM) was added, and after 4 h of incubation, the fluorescence was measured at 560 nm excitation and 590 nm emission using a plate reader (Perkin Elmer EnSpire, Rodgau, Germany). All tests were repeated at least on four different weeks of cultivation.
as §2

[3] = resazurin viability, endpoint 48 h, 2 × 10^6 LtP/mL, mean ± SD of 4–8 experiments
[4] = resazurin viability, endpoint 48 h, 10^5 J774 cells/mL, mean ± SD of 4–8 experiments

COc1ccccc1C12OOC(c3ccccc3OC)(c3ccccc31)c1ccccc12 [oOMeAcEP]
IC50 [1, 3]: 40.7 ± 12.3 µM | Selectivity IC50,J774/IC50,LtP [1]: >4.9 | IC50,non-EP/IC50,EP [1]: 1.79 | IC50 [2, 4]: > 200 µM

C[n+]1ccc(C23OOC(c4cc[n+](C)cc4)(c4ccccc42)c2ccccc23)cc1 [Compound 1062MeAcEP]
IC50 [1, 3]: 62 ± 34.2 µM | Selectivity IC50,J774/IC50,LtP [1]: >3.2 | IC50 [2, 4]: > 200 µM

c1ccc(C23OOC(c4ccccn4)(c4ccccc42)c2ccccc23)nc1 [oPyAcEP]
IC50 [1, 3]: 1.84 ± 0.13 µM | Selectivity IC50,J774/IC50,LtP [1]: 1.2 | IC50,non-EP/IC50,EP [1]: 18.7 | IC50 [2, 4]: 2.24 ± 0.08 µM

CC(C)(C)c1ccc2c(c1)C1(c3cccnc3)OOC2(c2cccnc2)c2ccccc21 (centres unmarked) [mPyBuAcEP]
IC50 [1, 3]: 0.7 ± 0.31 µM | Selectivity IC50,J774/IC50,LtP [1]: 35 | IC50,non-EP/IC50,EP [1]: 0.77 | IC50 [2, 4]: 24.6 ± 7.3 µM

CC(C)(C)c1ccc2c(-c3cccnc3)c3ccccc3c(-c3cccnc3)c2c1 [mPyBuAc]
IC50 ([1]; 48 h): 0.54 ± 0.09 µM | Selectivity IC50,J774/IC50,LtP [1]: 139 | IC50 [2]: 74.2 ± 45.9 µM

c1ccc(C23OOC(c4ccccc4)(c4ccccc42)c2ccccc23)cc1 [DPAcEP]
IC50 [1, 3]: 9.67 ± 2.15 µM | Selectivity IC50,J774/IC50,LtP [1]: 20 | IC50,non-EP/IC50,EP [1]: 20.3 | Activity against LtP, in words ([1]; viability assay): rather active | IC50 [2, 4]: 197 ± 35 µM
